Results from the supplement of paper PMC12463676, “Small-molecule dissolution of stress granules by redox modulation benefits ALS models” (Nature Chemical Biology, 2025).

Key:
lipoamide = compound: NC(=O)CCCCC1CCSS1 [lipoamide]; assay: thermal stability z-score vs DMSO; higher = more thermally stabilized by treatment; details: HeLa, lipoamide concentration 100 µM
Protocol: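 Cellular thermal proteome profiling in HeLa cells. Cells were treated with 100 µM lipoamide for 1 h, with or without 1 mM arsenate for a further 1 h, then heated to ten temperatures (37-66.3 °C), and soluble protein was quantified by TMT mass spectrometry relative to 0.1% DMSO controls. The thermal stability score (sum of log2 fold changes minus the abundance score) was transformed to a z-score; mean of n = 3 experiments.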

potassium arsenate = compound: O=[As]([O-])(O)O.[K+] [potassium arsenate]; assay: as above; details: HeLa; arsenate concentration 1 mM
Protocol: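 Cellular thermal proteome profiling in HeLa cells treated with 1 mM arsenate for 1 h (DMSO pretreatment), heated to ten temperatures (37-66.3 °C). Soluble protein was quantified by TMT mass spectrometry relative to DMSO controls; the thermal stability score was transformed to a z-score; mean of n = 3 experiments.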

[1] = arsenate co-treatment: 1 mM arsenate 1 h
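Also: each temperature applied for 3 min, abundance score taken as mean log2 fold change at the two lowest temperatures, z-score obtained by mean subtraction and division by SD.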

UniProt Q9GZT9, sequence (Q9GZT9 whole entry, looked up): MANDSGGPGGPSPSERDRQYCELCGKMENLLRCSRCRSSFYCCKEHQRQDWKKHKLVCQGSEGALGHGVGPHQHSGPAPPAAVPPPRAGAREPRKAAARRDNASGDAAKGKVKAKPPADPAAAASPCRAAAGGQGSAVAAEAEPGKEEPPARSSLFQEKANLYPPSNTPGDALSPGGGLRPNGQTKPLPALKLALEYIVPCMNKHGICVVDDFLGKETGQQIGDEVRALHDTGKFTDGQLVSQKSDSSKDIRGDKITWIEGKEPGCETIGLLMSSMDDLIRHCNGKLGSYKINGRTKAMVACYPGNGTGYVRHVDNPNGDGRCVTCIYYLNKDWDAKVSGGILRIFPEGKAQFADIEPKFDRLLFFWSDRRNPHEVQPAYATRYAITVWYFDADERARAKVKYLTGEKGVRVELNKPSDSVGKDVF
UniProt P63167, sequence (P63167 whole entry): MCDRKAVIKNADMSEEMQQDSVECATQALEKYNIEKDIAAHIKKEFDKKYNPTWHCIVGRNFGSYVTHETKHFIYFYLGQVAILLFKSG
UniProt Q8N3D4, sequence (Q8N3D4 whole entry): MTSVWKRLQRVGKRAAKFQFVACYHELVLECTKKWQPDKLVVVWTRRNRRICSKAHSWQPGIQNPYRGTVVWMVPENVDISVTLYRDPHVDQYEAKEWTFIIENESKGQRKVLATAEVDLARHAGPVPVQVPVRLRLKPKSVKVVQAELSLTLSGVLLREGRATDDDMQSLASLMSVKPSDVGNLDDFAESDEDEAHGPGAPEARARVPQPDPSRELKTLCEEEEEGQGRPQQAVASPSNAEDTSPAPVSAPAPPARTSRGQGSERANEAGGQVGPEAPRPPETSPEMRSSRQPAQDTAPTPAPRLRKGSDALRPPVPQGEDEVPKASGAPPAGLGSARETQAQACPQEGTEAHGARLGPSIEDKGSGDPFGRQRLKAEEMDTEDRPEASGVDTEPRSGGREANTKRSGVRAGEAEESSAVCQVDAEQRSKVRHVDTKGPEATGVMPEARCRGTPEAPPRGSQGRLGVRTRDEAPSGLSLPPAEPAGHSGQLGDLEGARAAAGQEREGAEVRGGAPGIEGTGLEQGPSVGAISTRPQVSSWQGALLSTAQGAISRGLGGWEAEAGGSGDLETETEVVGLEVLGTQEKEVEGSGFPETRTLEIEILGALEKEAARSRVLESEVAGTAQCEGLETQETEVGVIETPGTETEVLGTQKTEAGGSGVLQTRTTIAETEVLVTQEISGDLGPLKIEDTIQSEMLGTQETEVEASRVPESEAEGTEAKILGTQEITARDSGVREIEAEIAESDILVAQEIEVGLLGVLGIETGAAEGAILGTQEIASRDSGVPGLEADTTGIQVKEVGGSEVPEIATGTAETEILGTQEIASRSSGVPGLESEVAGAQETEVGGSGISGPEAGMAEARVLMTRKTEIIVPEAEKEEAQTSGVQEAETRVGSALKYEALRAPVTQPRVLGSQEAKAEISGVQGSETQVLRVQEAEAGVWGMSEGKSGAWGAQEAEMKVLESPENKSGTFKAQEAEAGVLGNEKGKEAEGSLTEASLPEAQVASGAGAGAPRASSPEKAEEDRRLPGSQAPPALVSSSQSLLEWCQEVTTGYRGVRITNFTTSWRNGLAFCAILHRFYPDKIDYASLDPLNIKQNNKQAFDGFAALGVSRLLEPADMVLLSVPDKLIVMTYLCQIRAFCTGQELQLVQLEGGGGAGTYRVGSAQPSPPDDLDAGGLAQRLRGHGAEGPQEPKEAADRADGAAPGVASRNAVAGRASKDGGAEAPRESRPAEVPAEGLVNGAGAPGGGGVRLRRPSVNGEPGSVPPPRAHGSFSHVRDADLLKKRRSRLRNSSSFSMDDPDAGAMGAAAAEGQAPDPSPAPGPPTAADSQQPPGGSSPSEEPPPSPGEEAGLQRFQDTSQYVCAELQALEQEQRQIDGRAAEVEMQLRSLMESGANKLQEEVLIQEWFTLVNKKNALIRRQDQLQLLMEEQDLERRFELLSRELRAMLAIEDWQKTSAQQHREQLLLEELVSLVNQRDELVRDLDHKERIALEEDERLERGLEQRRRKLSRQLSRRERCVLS
UniProt Q96F86, sequence (Q96F86 whole entry): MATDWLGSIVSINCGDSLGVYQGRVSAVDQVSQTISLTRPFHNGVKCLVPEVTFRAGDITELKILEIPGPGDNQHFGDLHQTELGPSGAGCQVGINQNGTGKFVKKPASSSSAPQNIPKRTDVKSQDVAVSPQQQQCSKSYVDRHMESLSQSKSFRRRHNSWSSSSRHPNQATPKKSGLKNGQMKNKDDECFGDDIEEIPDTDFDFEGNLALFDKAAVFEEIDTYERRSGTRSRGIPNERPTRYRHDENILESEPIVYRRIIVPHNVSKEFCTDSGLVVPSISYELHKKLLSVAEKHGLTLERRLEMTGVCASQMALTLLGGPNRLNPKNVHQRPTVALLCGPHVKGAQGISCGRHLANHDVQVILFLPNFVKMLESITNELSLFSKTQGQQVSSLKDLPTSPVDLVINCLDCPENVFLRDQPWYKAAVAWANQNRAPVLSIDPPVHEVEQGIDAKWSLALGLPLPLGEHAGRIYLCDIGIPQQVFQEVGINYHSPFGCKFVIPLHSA
UniProt Q9H8V3, sequence (Q9H8V3 whole entry): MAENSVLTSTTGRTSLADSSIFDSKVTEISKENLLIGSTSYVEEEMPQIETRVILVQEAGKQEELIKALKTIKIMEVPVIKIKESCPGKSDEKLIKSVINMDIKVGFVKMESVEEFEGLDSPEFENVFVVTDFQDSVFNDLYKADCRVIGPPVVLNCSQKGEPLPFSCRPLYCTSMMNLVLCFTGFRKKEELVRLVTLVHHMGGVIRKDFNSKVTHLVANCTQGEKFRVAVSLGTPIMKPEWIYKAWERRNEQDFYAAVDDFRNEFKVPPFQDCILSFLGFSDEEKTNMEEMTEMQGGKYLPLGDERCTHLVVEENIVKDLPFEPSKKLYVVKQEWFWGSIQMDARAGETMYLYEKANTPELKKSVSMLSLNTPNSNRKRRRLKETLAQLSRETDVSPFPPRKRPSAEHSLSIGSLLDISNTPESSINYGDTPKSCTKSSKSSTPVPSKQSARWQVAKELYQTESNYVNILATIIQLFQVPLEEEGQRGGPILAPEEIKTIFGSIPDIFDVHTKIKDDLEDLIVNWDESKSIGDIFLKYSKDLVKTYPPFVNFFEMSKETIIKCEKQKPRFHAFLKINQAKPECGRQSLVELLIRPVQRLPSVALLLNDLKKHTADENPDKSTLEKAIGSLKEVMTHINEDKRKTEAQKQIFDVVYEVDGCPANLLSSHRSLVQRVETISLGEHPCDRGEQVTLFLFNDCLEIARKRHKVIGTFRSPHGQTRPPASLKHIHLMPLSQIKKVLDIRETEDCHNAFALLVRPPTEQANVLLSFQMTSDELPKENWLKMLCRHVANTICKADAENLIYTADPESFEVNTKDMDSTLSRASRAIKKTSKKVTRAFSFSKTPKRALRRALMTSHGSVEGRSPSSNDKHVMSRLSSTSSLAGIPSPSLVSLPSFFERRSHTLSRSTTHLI
UniProt P42126, sequence (P42126 whole entry): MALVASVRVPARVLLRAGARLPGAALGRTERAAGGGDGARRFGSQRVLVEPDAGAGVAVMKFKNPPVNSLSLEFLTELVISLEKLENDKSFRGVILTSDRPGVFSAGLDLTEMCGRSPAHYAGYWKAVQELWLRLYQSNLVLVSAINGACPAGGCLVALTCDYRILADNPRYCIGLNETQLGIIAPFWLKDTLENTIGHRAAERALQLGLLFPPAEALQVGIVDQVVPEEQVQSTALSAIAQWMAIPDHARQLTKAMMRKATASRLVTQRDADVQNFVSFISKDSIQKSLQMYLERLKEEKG
UniProt P51808, sequence (P51808 whole entry): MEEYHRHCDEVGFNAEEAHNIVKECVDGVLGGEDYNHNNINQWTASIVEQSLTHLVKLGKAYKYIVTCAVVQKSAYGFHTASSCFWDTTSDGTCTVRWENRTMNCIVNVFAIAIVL
UniProt Q9BV94, sequence (Q9BV94 whole entry): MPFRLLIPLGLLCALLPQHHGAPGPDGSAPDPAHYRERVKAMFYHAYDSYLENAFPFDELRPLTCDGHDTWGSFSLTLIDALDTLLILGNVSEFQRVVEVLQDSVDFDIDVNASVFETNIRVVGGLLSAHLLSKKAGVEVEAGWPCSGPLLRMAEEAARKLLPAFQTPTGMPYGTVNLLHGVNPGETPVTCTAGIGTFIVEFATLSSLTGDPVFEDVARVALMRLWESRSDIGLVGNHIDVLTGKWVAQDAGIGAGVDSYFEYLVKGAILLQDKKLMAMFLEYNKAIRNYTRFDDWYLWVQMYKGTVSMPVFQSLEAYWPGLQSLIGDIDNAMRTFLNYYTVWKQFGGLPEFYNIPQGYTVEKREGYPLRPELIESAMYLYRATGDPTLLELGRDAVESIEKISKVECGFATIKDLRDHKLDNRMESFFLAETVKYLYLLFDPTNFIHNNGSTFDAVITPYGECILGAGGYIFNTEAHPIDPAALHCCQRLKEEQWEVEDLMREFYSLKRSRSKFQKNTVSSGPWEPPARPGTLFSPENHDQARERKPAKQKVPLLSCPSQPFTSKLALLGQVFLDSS
UniProt O60869, sequence (O60869 whole entry): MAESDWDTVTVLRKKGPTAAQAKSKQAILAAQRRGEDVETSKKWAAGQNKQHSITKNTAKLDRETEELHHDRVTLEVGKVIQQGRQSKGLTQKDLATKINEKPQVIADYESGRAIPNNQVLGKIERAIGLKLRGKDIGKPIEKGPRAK
UniProt O43324, sequence (O43324 whole entry): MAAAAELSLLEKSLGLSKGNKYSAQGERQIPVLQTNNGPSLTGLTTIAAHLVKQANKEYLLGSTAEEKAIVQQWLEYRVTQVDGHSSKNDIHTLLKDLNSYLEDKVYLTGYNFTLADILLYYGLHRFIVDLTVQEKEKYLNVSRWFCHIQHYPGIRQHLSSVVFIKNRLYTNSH
UniProt Q96FJ2, sequence (Q96FJ2 whole entry): as the sequence (P63167 whole entry) above, with C2S, E16D, S21A, E23D, L29M, H41Y counted along it
UniProt Q9NP97, sequence (Q9NP97 whole entry): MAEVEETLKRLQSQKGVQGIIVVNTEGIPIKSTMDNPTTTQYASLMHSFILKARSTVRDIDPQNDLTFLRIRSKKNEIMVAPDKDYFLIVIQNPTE

| Target | thermal stability z-score (lipoamide; [1]) | thermal stability z-score (lipoamide; arsenate co-treatment: none) | thermal stability z-score (potassium arsenate) |
| --- | --- | --- | --- |
| DYNC1LI2 (UniProt O43237) | -0.543 | -0.166 | 0.192 |
| DYNC2H1 (UniProt Q8NCM8) | -0.15 | -0.28 | -0.209 |
| DYNC2LI1 (UniProt Q8TCX1) | 0.0696 | -0.0585 | 0.202 |
| DYNLL1 (UniProt P63167) | -0.627 | -0.0429 | 0.163 |
| DYNLL2 (UniProt Q96FJ2) | 0.256 | 0.641 | 0.118 |
| DYNLRB1 (UniProt Q9NP97) | -0.37 | 0.743 | 0.237 |
| DYNLT3 (UniProt P51808) | 0.487 | -0.208 | -0.596 |
| DYRK1A (UniProt Q13627) | -0.118 | -0.0216 | 0.54 |
| E2F3 (UniProt O00716) | -0.295 | -0.154 | -0.342 |
| E2F4 (UniProt Q16254) | 0.295 | 0.54 | 0.373 |
| EAF1 (UniProt Q96JC9) | 1.02 | 0.0799 | -0.000349 |
| EAPP (UniProt Q56P03) | 0.767 | 0.459 | -0.167 |
| EARS2 (UniProt Q5JPH6) | -1 | -0.188 | 0.0121 |
| EBAG9 (UniProt O00559) | 1.73 | 1.25 | 0.749 |
| EBNA1BP2 (UniProt Q99848) | 0.29 | -0.281 | 0.463 |
| ECD (UniProt O95905) | -0.47 | -0.00943 | -0.232 |
| ECE1 (UniProt P42892) | -0.298 | -0.225 | -0.191 |
| ECE2 (UniProt P0DPD6) | -0.0621 | 0.0487 | -0.104 |
| ECEL1 (UniProt O95672) | -1.25 | -0.891 | 1.11 |
| ECH1 (UniProt Q13011) | -0.108 | 0.163 | -0.0954 |
| ECHDC1 (UniProt Q9NTX5) | 0.928 | 0.478 | 0.479 |
| ECHS1 (UniProt P30084) | -0.919 | -0.57 | -1.22 |
| ECI1 (UniProt P42126) | 0.859 | 0.555 | 0.59 |
| ECI2 (UniProt O75521) | 0.0605 | -0.724 | -0.44 |
| ECSIT (UniProt Q9BQ95) | 0.434 | -0.221 | -0.207 |
| ECT2 (UniProt Q9H8V3) | -0.0726 | -0.00204 | -0.475 |
| EDC3 (UniProt Q96F86) | -0.713 | -0.608 | -0.555 |
| EDC4 (UniProt Q6P2E9) | -0.258 | 0.0716 | -0.454 |

| Target | thermal stability z-score (lipoamide; [1]) | thermal stability z-score (lipoamide; arsenate co-treatment: none) | thermal stability z-score (potassium arsenate) |
| --- | --- | --- | --- |
| EDEM1 (UniProt Q92611) | -0.0592 | -0.0491 | 0.0795 |
| EDEM2 (UniProt Q9BV94) | 0.18 | 0.234 | 0.127 |
| EDEM3 (UniProt Q9BZQ6) | -3.5 | -2.77 | 0.485 |
| EDF1 (UniProt O60869) | 0.657 | 0.578 | 0.199 |
| EDIL3 (UniProt O43854) | -0.15 | -0.528 | 1.14 |
| EDRF1 (UniProt Q3B7T1) | -0.147 | -0.327 | -0.168 |
| EEA1 (UniProt Q15075) | 0.149 | 0.231 | -0.325 |
| EED (UniProt O75530) | 0.547 | 0.145 | -0.276 |
| EEF1A1 (UniProt P68104) | -0.0408 | 0.166 | 0.2 |
| EEF1B2 (UniProt P24534) | 0.748 | 0.472 | 0.849 |
| EEF1D (UniProt P29692) | 0.303 | 0.257 | -0.0726 |
| EEF1E1 (UniProt O43324) | 0.552 | 0.194 | 0.997 |
| EEF1G (UniProt P26641) | 0.0213 | 0.149 | 0.215 |
| EEF2 (UniProt P13639) | -0.0517 | 0.0227 | -0.39 |
| EEF2K (UniProt O00418) | -0.0522 | -0.0721 | -0.0657 |
| EEF2KMT (UniProt Q96G04) | 0.0521 | 0.046 | 0.0729 |
| EEFSEC (UniProt P57772) | -0.771 | 0.715 | -0.884 |
| EFCAB14 (UniProt O75071) | -0.971 | -1.74 | 0.262 |
| EFEMP1 (UniProt Q12805) | -3.26 | -2.96 | 0.134 |
| EFHD2 (UniProt Q96C19) | 0.403 | 0.677 | -0.223 |
| EFL1 (UniProt Q7Z2Z2) | -0.245 | 0.0406 | 0.402 |
| EFTUD2 (UniProt Q15029) | 0.0587 | -0.0524 | -0.28 |
| EGFL7 (UniProt Q9UHF1) | 0.126 | 0.102 | -0.108 |
| EGFR (UniProt P00533) | -1.07 | -0.989 | -1.02 |
| EGLN1 (UniProt Q9GZT9) | 0.176 | 0.423 | 1.64 |
| EHBP1 (UniProt Q8NDI1) | 0.0509 | 0.183 | -0.166 |
| EHBP1L1 (UniProt Q8N3D4) | -0.423 | -0.0281 | -0.3 |
